This note sets out measurements from patent US20250296960A1, “PEPTIDE COMPOSITIONS AND METHODS OF USE THEREOF” (priority 2022, published 2025).

The nature of data set [1]: Intestinal absorption / PK after intraduodenal administration of oral formulation in rats, serum LC-MS/MS. The following applies: rat, in vivo, 300 nmol/kg. The method, then: This study was conducted to evaluate the intestinal absorption of peptides following enteral administration of oral pharmaceutical formulations. The pharmaceutical formulation was administered in a form of suspensions by intraduodenal (ID) injection in rats. SEQ ID_87, 89 and 90 was accurately weighed and dissolved in 10 mM PBS containing polysorbate 80 (pH 7.4, vehicle I). The mixture was vortexed for 5 min to get a clear solution. Then, 2.5 mL of vehicle was added to the mixture and vortexed for 30 min to get homogenous opaque suspension. The composition of Vehicle II was sodium chenodeoxycholate, and propyl gallate in polysorbate 80 in PBS. The animals were not fasted prior to dosing. 0.2˜ 0.4 mL of whole blood was taken from vein at each time point (0, 0.167, 0.5, 1, 2, 4, 8, 24, and 48 hrs after IV or ID administration). The collected whole blood was incubated at room temperature for 20 min and tubes were centrifugated at 13,000 rpm for 10 min at 4° C. The resulting serum 0.1˜ 0.2 mL was transferred into the tube and stored at −70° C. until analysis. The concentrations of peptides in serum were determined by LC-MS/MS analysis. PK parameters were analyzed by non-compartmental analysis using Phoenix WinNonlin 5.0.1. software (Pharsight Corporation, Mountain View, CA, USA).

Data set [2] concerns the target T1, human GCGR (Homo sapiens, UniProt P47871).
T1 construct: host or cells: CHO-K1
Kind of data set: cAMP assay (HitHunter cAMP) in GCGR-expressing CHO-K1 cells (GCGR+ cells). The format is cell-based. The method, then:
(§1) The cells were seeded in a 96-well plate at 7×10^3 cells/well using cell plate reagent and incubated the cells overnight at 37° C. and 5% CO2. To perform the cAMP detection assay, cell plating reagent were replaced with the cAMP Assay buffer. Each of the wells was then treated with the diluted peptide and incubated for 30 minutes under conditions of a temperature of 37° C. in a CO2 incubator.
(§2) After the incubation, cAMP Antibody reagent and Working cAMP detection solution to all wells. Incubate the plate for 1 hour at Room temperature in the dark. Then, cAMP Solution A was added and incubated for 3 hours at room temperature in the dark. Subsequently, the luminescence was measured using the microplate reader device.

Data set [3] in a line: Body weight loss in normal C57BL/6 mice, subcutaneous dosing. The following applies: normal mice, after 48 or 72 hours. Type of data set: in vivo. The method, then:
To confirm the therapeutic effect of the peptide in vivo, polypeptides were administered to mice to measure changes in body weight. […] The peptides were delivered at 0.02% polysorbate 80 (PS80) in PBS and dosing volume was 10 mL/kg. Body weight was monitored 6 h, QD.
To confirm the therapeutic effect of the peptide in obesity, diabetes, or NASH, polypeptides were administered to mice to measure changes in food intake, blood glucose and body weight. […] In addition, a NASH animal model was prepared by feeding a high fat, high fructose, high cholesterol diet to normal C57BL/6 mice (approximately 6 weeks old) for approximately 21 weeks, and increasing the body weights of the mice to approximately 50 g on average. Thereafter, polypeptides were administered by subcutaneous injection at dose of 20 nmol/kg once every other day for 2 weeks. Body weight and food intake were measured once every other day given points of time. After 2 weeks of treatment period, mice were sacrificed, then liver weight, hepatic triglyceride, and NASH related biomarkers were measured.
DD01 administered at 40 nmol/kg, s.c. Q2D as positive control was delivered at 0.02% PS80 in PBS and dosing volume was 10 mL/kg. Body weight was monitored QD for 4 days.
The peptides were delivered at 0.02% PS80 in PBS and dosing volume was 10 mL/kg. Food intake, blood glucose, and body weight changes were monitored QD.

Data set [4] deals with T2, human GIPR (Homo sapiens, UniProt P48546).
T2 construct: host or cells: CHO-K1
T2 sequence (P48546 22-466): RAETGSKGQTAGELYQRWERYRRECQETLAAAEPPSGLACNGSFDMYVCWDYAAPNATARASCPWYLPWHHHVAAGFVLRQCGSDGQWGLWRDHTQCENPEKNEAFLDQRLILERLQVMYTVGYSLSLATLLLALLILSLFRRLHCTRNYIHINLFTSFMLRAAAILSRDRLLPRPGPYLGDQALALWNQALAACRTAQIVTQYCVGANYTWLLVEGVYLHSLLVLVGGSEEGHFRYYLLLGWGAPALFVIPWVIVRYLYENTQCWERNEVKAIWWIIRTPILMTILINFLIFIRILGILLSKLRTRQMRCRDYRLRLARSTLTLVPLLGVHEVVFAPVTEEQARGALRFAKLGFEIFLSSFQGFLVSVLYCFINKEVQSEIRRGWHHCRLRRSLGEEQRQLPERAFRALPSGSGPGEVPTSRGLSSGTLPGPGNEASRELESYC
Kind of data set: cAMP assay (HitHunter cAMP) in GIPR-expressing CHO-K1 cells (GIPR+ cells). The format is cell-based. The method, then: as §1, §2

Data set [5] concerns the target T3, human GLP-1R (Homo sapiens, UniProt P43220).
T3 construct: host or cells: CHO-K1
Kind of data set: cAMP assay (HitHunter cAMP) in GLP-1R-expressing CHO-K1 cells (GLP-1R+ cells). Type of data set: cell-based. The method, then: as §1, §2

The mark [6] stands for this setting: Table 13, EC50 of STD peptide over EC50 of peptide.
Where [7] appears, read: Table 14, normalised to activity at GLP-1R.

Like-named read-outs stand apart in the source and are kept apart here. Numbered stars: 1 amine (or outer) side, 2 acyl side, 3 side chain; on linkers, the order of the positions; unused ones are H or OH. Square brackets hold non-standard residues; d marks the D form. Side chains are listed from the residue outwards. Peptide text beside a SMILES is read from it. * marks the point of attachment. Biotin = O=C1N[C@H]2[C@H](CS[C@H]2CCCCC(=O)*)N1; C18 diacid = O=C(O)CCCCCCCCCCCCCCCCC(=O)*; γGlu = O=C(O)[C@H](CCC(=O)[*:2])N[*:1]; AEEA = NCCOCCOCC(=O)O; Aib = CC(C)(N)C(=O)O

T3 sequence (P43220 24-463): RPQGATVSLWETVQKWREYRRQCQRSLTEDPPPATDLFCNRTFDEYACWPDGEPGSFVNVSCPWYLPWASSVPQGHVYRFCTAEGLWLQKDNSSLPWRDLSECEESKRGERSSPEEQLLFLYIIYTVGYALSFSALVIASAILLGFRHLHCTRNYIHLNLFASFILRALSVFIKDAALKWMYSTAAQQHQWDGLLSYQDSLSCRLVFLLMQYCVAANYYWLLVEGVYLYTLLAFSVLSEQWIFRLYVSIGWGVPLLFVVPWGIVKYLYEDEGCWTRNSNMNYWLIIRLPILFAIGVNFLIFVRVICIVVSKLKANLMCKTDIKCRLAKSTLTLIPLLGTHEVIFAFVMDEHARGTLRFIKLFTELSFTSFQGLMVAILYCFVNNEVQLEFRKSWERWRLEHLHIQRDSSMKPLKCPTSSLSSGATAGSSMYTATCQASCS
T1 sequence (P47871 26-477): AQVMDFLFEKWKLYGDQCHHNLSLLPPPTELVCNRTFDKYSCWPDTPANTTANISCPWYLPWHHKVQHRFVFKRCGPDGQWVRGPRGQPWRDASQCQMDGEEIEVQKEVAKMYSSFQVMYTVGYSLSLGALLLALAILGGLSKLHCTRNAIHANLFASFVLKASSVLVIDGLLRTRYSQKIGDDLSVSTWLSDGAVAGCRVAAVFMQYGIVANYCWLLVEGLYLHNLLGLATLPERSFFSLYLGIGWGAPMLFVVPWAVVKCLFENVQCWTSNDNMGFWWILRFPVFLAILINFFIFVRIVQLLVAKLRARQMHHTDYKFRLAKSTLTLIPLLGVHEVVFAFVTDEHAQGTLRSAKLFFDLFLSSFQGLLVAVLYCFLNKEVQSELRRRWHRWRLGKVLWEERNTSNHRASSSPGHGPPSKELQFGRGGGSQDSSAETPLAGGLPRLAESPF

Turning to `CSCC[C@H](NC(=O)[C@H](CCCCNC(=O)CCCC[C@@H]1SC[C@@H]2NC(=O)N[C@@H]21)NC(=O)[C@H](Cc1ccc(O)cc1)NC(=O)[C@H](CC(=O)O)NC(=O)[C@H](CC(C)C)NC(=O)[C@H](CC(C)C)NC(=O)[C@H](CCCCNC(=O)COCCOCCNC(=O)COCCOCCNC(=O)CC[C@H](NC(=O)CCCCCCCCCCCCCCCCC(=O)O)C(=O)O)NC(=O)[C@H](CO)NC(=O)[C@H](Cc1ccc(O)cc1)NC(=O)[C@H](CC(=O)O)NC(=O)[C@H](CO)NC(=O)[C@@H](NC(=O)[C@H](Cc1ccccc1)NC(=O)[C@@H](NC(=O)CNC(=O)[C@H](CCC(N)=O)NC(=O)C(C)(C)NC(=O)[C@@H](N)Cc1ccc(O)cc1)[C@@H](C)O)[C@@H](C)O)C(=O)N[C@@H](CCC(N)=O)C(=O)N[C@@H](CCCNC(=N)N)C(=O)N[C@@H](CC(=O)O)C(=O)N[C@@H](Cc1ccccc1)C(=O)N[C@H](C(=O)N[C@@H](CCC(N)=O)C(=O)N[C@@H](Cc1c[nH]c2ccccc12)C(=O)N[C@@H](CC(C)C)C(=O)N[C@@H](CC(C)C)C(=O)N[C@@H](CCC(=O)O)C(=O)NCC(=O)NCC(=O)N1CCC[C@H]1C(=O)N[C@@H](CO)C(=O)N[C@@H](CO)C(=O)NCC(=O)N[C@@H](C)C(=O)N1CCC[C@H]1C(=O)N1CCC[C@H]1C(=O)N1CCC[C@H]1C(=O)N[C@@H](CO)C(N)=O)C(C)C` [SEQ ID NO. 87, YAibQGT FTSDY SK*LLD YB*MQR DFVQW LLEGG PSSGA PPPS] (H-Y[Aib]QGTFTSDYSK([AEEA-AEEA-γGlu-C18 diacid])LLDYK(Biotin)MQRDFVQWLLEGGPSSGAPPPS-NH2; N-terminus and C-terminus assumed), in data set [1], the AUC(0-inf) was 1860 ng·h/mL; the peak level (Cmax) was 290 ± 110 ng/mL; the MRT inf came to 8.19 ± 1.92 h; the time of peak concentration (Tmax) (in general, the time at which the peak concentration occurs) is 0.25 ± 0.17 h. Further, the half-life in data set [1] is 6.17 ± 1.36 h.
For the compound `CSCC[C@H](NC(=O)[C@H](Cc1ccc(O)cc1)NC(=O)[C@H](CC(=O)O)NC(=O)[C@H](CC(C)C)NC(=O)[C@H](CC(C)C)NC(=O)[C@H](CCCCNC(=O)COCCOCCNC(=O)COCCOCCNC(=O)CC[C@H](NC(=O)CCCCCCCCCCCCCCCCC(=O)O)C(=O)O)NC(=O)[C@H](CO)NC(=O)[C@H](Cc1ccc(O)cc1)NC(=O)[C@H](CC(=O)O)NC(=O)[C@H](CO)NC(=O)[C@@H](NC(=O)[C@H](Cc1ccccc1)NC(=O)[C@@H](NC(=O)CNC(=O)[C@H](CCC(N)=O)NC(=O)C(C)(C)NC(=O)[C@@H](N)Cc1ccc(O)cc1)[C@@H](C)O)[C@@H](C)O)C(=O)N[C@@H](CCSC)C(=O)N[C@@H](CCC(N)=O)C(=O)N[C@@H](CCCNC(=N)N)C(=O)N[C@@H](CC(=O)O)C(=O)N[C@@H](Cc1ccccc1)C(=O)N[C@H](C(=O)N[C@@H](CCCCNC(=O)CCCC[C@@H]1SC[C@@H]2NC(=O)N[C@@H]21)C(=O)N[C@@H](Cc1c[nH]c2ccccc12)C(=O)N[C@@H](CC(C)C)C(=O)N[C@@H](CC(C)C)C(=O)N[C@@H](CCC(=O)O)C(=O)NCC(=O)NCC(=O)N1CCC[C@H]1C(=O)N[C@@H](CO)C(=O)N[C@@H](CO)C(=O)NCC(=O)N[C@@H](C)C(=O)N1CCC[C@H]1C(=O)N1CCC[C@H]1C(=O)N1CCC[C@H]1C(=O)N[C@@H](CO)C(N)=O)C(C)C` [SEQ ID_89] (H-Y[Aib]QGTFTSDYSK([AEEA-AEEA-γGlu-C18 diacid])LLDYMMQRDFVK(Biotin)WLLEGGPSSGAPPPS-NH2; N-terminus and C-terminus assumed), the AUC(0-inf) in data set [1] (rats, single intraduodenal administration, oral formulation suspension, serum, mean ± SD, read-out: AUCinf) turned out to be 2790 ng·h/mL. For the same compound, the Cmax – broadly, the maximum level reached in the sampled fluid or tissue – in data set [1] (rats, single intraduodenal administration, oral formulation suspension, serum, mean ± SD, read-out: Cmax) was 332 ± 124 ng/mL. For the same compound, the MRT inf in data set [1] (rats, single intraduodenal administration, oral formulation suspension, serum, mean ± SD, read-out: MRTinf) worked out at 9.89 ± 3.91 h. Besides, in data set [1] (rats, single intraduodenal administration, oral formulation suspension, serum, mean ± SD, read-out: Tmax), the time of peak concentration (Tmax) turned out to be 0.43 ± 0.15 h. The half-life in data set [1] (rats, single intraduodenal administration, oral formulation suspension, serum, mean ± SD, read-out: t1/2 (converted)) is 7.24 ± 2.05 h.
As to `CC[C@H](C)[C@H](NC(=O)[C@H](CC(C)C)NC(=O)[C@H](Cc1c[nH]c2ccccc12)NC(=O)[C@H](CCC(N)=O)NC(=O)[C@@H](NC(=O)[C@H](Cc1ccccc1)NC(=O)[C@H](CC(=O)O)NC(=O)[C@H](CCCNC(=N)N)NC(=O)[C@H](C)NC(=O)[C@H](CCSC)NC(=O)[C@H](CCSC)NC(=O)[C@H](Cc1ccc(O)cc1)NC(=O)[C@H](CC(=O)O)NC(=O)[C@H](CC(C)C)NC(=O)[C@H](Cc1ccc(O)cc1)NC(=O)[C@H](CCCCNC(=O)COCCOCCNC(=O)COCCOCCNC(=O)CC[C@H](NC(=O)CCCCCCCCCCCCCCCCC(=O)O)C(=O)O)NC(=O)[C@H](CO)NC(=O)[C@H](Cc1ccc(O)cc1)NC(=O)[C@H](CC(=O)O)NC(=O)[C@H](CO)NC(=O)[C@@H](NC(=O)[C@H](Cc1ccccc1)NC(=O)[C@@H](NC(=O)CNC(=O)[C@H](CCC(N)=O)NC(=O)C(C)(C)NC(=O)[C@@H](N)Cc1c[nH]cn1)[C@@H](C)O)[C@@H](C)O)C(C)C)C(=O)N[C@@H](CCC(=O)O)C(=O)NCC(=O)NCC(=O)N1CCC[C@H]1C(=O)N[C@@H](CO)C(=O)N[C@@H](CO)C(=O)NCC(=O)N[C@@H](C)C(=O)N1CCC[C@H]1C(=O)N1CCC[C@H]1C(=O)N1CCC[C@H]1C(=O)N[C@@H](CO)C(=O)N[C@@H](CSC1CC(=O)N(CCCCCC(=O)NNC(=O)CCCC[C@@H]2SC[C@@H]3NC(=O)N[C@@H]32)C1=O)C(N)=O` (stereo partly drawn) [5C, HAibQGT FTSDY SK*YLD YMMAR DFVQW LIEGG PSSGA PPPSB#], in data set [2] (setting [6]), the “Activity relative to STD peptide (%), Glucagon” value was determined as 23%. In data set [2] (setting [7]), the “Activity relative to GLP-1 (%), Glucagon” value stood at 12%. Also, the “Weight loss (%)” value in data set [3] (10 nmol/kg QD) came out at 9.6 ± 1.0%; in data set [3] (20 nmol/kg QD) it was 14.1 ± 1.9%. The “Activity relative to STD peptide (%), GIP” value in data set [4] (setting [6]) turned out to be 8%. Moreover, the “Activity relative to GLP-1 (%), GIP” value in data set [4] (setting [7]) is listed as 4%. For the same compound, the “Activity relative to STD peptide (%), GLP-1” value in data set [5] (setting [6]) is reported as 202%. Further, the “Activity relative to GLP-1 (%), GLP-1” value in data set [5] (setting [7]) worked out at 100%.
